# In US12496298B2, “Natural killer cells” (Imperial College Innovations Limited, priority 2017, dated 2025):
# System: mouse NK cell (NK1.1+CD3−) production from HPCs
# Assay: In vitro development of NK cells from mouse HPCs (NK cell development assay, flow cytometry at Day 9)
# Format: cell-based
# Details: for increase in NK cell production, rank among 2, 5, 10 and 20 μM: confirmation experiments (FIG. 4)
# Source text: FIG. 2: Timeline of NK cell development assay. HPCs were isolated and cultured plus FIt3L, IL-7 and SCF cytokines. At Day 2, they were then transferred onto OP9 stromal cells plus or minus drug in culture medium plus the IL-15 cytokine. The media of the cultures were changed at Day 5 and the cells were harvested and analysed at Day 9.
# Lineage negative cells are enriched for Hematopoietic Progenitor Cells (HPCs). […] Cells were harvested on Day 9 and analysed using flow cytometry to determine the number of NK1.1^+CD3^− cells (FIG. 2). NK1.1^+ and CD3^− are two cell surface markers that can define mouse NK cells. OP9 stromal cells were readily excluded from the analysis, as the OP9 stromal cells used were GFP positive (FIG. 3B). Flow cytometry data were analysed as the fold increase, relative to the ‘No drug’ or untreated control in each experiment. This is because the absolute percentage of NK cell production varies between experiments.
# Lineage negative HSCs were purified from mouse bone marrow by crushing the leg bones in Phosphate-buffered Saline (PBS) with 2% fetal calf serum (FCS) (STEMCELL Technologies), topped up to 40 ml with magnetic-activated cell sorting (MACS) buffer (PBS, 2 mM EDTA, 0.5% BSA, sterile and filtered) and centrifuged at 800 g for 2 minutes. The cells were resuspended in PE-conjugated cocktail, (20 μl of anti-B220 (RA3-6B2), anti-mouse CD2 (RM2-5, anti-Ter119 (TER119) and anti-NK.1.1 (PK136) and 5 μl of anti-CD11b (M1/70) and anti-GR-1 (RB6-8C5) antibodies (all from Bioscience)) incubated for 5 minutes at 4° C., centrifuged and resuspended in anti-PE microbeads for 15 minutes at 4° C. Cells were washed in MACS buffer and passed through MACS columns. This allowed negative selection of HPCs. Following lineage depletion, 50 μl of the cells was analysed using flow cytometry to check for purity.
# The HPCs were plated and cultured in 24-well plates at a concentration of 5×10^5 HPCs/well in 1 ml of complete cytokine medium (Dulbecco's modified eagle medium (DMEM) (Sigma Aldrich), 10% FCS, 50 μM β-Mercaptoethanol, 10 ng/ml Flt3-ligand (FIt3L) (R&D Systems), 10 ng/ml IL-7 (R&D Systems), 100 ng/ml stem cell factor (SCF) (R&D Systems) and 1% P/S) for 2 days at 37° C., 5% CO2. The HPCs were then transferred onto OP9 cells at 4500 cells/well for 96-well plate experiments and 3×10^4 cells/well for 24-well plate experiments in mouse NK cells differentiation medium (Alpha-MEM (Sigma Aldrich) plus 20% FCS, 1% P/S and 30 ng/ml IL-15). Cells were left in culture at 37° C., 5% CO2 for 7 days with a change of mouse NK cells differentiation medium at day 3 or 4.
# Cells to be analysed by flow cytometry were passed through 40 μm cell strainers to remove clumps and washed with PBS buffer, centrifuged at 800 g for 2 minutes and resuspended in 100 μl fluorescent activated cell sorting (FACS) buffer (PBS plus 1% BSA) with appropriate fluorochrome conjugated antibodies at a dilution of 1 in 300. Cells were stained with the following antibodies, all of which were anti-mouse and are from eBioscience unless specified: 2B4 (clone m2B4(B6) 458.1; BioLegend), CD2 (RM2-5), CD3 (17A2), CD11b (M1/70), CD19 (1D3), CD27 (LG.7F9), CD122 (TM-b1), CD127 (A7R34), B220 (RA3-6B2), ckit (ACK2), Flt3 (A2F10), Gr1 (RB6-8C5), NK1.1 (PK136), Sca1 (D7), Ter119 (TER119), NKp46 (29A1.4) anti-human CD45 (HI30), anti-human CD2 (RPA-2.10) and anti-human CD56 (CMSSB). The lineage cocktail contained B220, CD2, CD11b, Gr1, NK1.1, and Ter119. Cells were stained in the dark at 4° C. for 30 minutes and then washed with 2 ml FACS buffer, centrifuged and resuspend in 300 μl FACS buffer plus Propidium Iodide (PI) also at a dilution of 1 in 300. Flow cytometry was performed using LSRFortessa™ cell analyser (Becton Dickinson Bioscience), sorted using FACSAria (Becton Dickinson) as indicated and full data analysis was done using FlowJo Software.
smiles,measurement,setting,value
"CCOC(=O)C1Cc2ccccc2CN1C(=O)c1ccc(SC)s1 (centres unmarked) [SR8278, 1,2,3,4-Tetrahydro-2-[[5-(methylthio)-2-thienyl]carbonyl]-3-isoquinolinecarboxylic acid ethyl ester]",NK cell production relative to 'No drug' control,5 μM added at Day 0 (greatest effect),over 1.4 fold
same,"increase in NK cell production, rank among 2, 5, 10 and 20 μM",5 μM,followed by 5 μM
same,NK cell production increase compared to 'No drug' control,"10 μM added Day 2, analysed Day 9, screen (FIG. 3)",over 2.4 fold
same,increase in NK cell production relative to 'No drug' control,"10 μM added on Days 0, 1 and 2",over 1.6 fold
same,"increase in NK cell production, rank among 2, 5, 10 and 20 μM",10 μM,highest increase in NK cell production
same,number of NK cells detected,"20 μM added Day 2, analysed Day 9",reduction in the number of NK cells detected
same,NK cell production relative to 'No drug' control,5 or 10 μM added after Day 2,no significant difference
same,production of NK cells in NK cell production assays increases,"summary in Discussion, concentration not given",more than 2 fold
